# Experimental data as given in patent publication US20230255873A1, “COSMETIC OR DERMATOLOGICAL PEPTIDE-BASED TREATMENT OF THE SKIN AND ITS INTEGUMENTS” (Sederma, priority 2020, published 2023).
# The star is where a group is joined. Palmitoyl = CCCCCCCCCCCCCCCC(=O)*
# Assays:
# equivalent skins = assay: Thickness of the stratum corneum on equivalent skins; format: cell-based, human; conditions: 2 days of contact, vs control
# Method: Equivalent skins were prepared by first manufacturing an equivalent dermis, then once it contracted, human keratinocytes were seeded on the surface of the gel. After 14 days, equivalent skins were obtained, on which carbopol gels containing the peptide of the invention or the solvent alone were applied to their surface. After 2 days of contact, the skins were frozen to be sectioned into thin 7 μm slides and then marked in order to visualize the macrostructure of the layers. A quantification of the thickness of the stratum corneum was carried out on photos using an image software.
# Propionibacterium acnes = Propionibacterium acnes growth inhibition test (time to OD of 1); format: cell-based; conditions: control 26 hours
# Method: 1.4—Propionibacterium acnes Growth Inhibition Test Principle: Suspensions of Propionibacterium acnes of equivalent density are cultured in a suitable medium in the presence (test case) or absence (control case) of the preferred peptide according to the invention, in anaerobic condition, at 37° C. Samples are taken at regular intervals to measure the OD at 600 nm, to follow the growth of the bacterial population over time. The growth curve of each culture can therefore be established.
# [1] = system: normal human keratinocytes (NHK); assay: Involucrin quantification by immunohistochemistry in NHK; format: cell-based; conditions: 5 ppm
# Method: Normal human keratinocytes (NHK) are grown on wells plate. When subconfluence was reached, cells received various concentrations of the peptides. After few days, evaluation of differentiation is compared to solvent control under microscope and cells are fixed to allow the study of involucrin by immunohistochemistry.
# Involucrin is an early marker of keratinocytes differentiation. The below table show the percentage of variation of involucrin vs. Control.
# P. acnes [2] = assay: P. acnes growth curve (time to OD600 nm = 0.5); format: cell-based, Propionibacterium acnes; conditions: for Time (in hour) to reach OD600 nm = 0.5: vehicle 42-44 h
# Method: 1—P. acnes growth curve (same protocol as described above at point 1.4)
# P. acnes is thawed and grown over 3 days in M20 media. Then, optical density at 600 nm (OD600) is measured and 2×10^6 CFU*/mL are plated in well plates. P. acnes is then treated with 6 ppm, 9 ppm and 12 ppm of peptides. To follow bacterial cell multiplication, OD600 is measured regularly for about 1 week. […] Statistical evaluations are performed on results using a Student t test. Two independent experiments are performed (N=2).
# [3] = system: extracellular lipases of P. acnes; assay: Lipase activity of P. acnes (4-MUO probe); format: biochemical, Propionibacterium acnes; conditions: vs solvent control, n = 6
# Method: A culture of P. acnes was carried out. The cells were then separated from the culture medium containing the lipases excreted by P. acnes. The peptide of the invention was added to samples of this cell-free medium and lipase activity was monitored using a fluorescent 4-methylumbelliferyl oleate (4-MUO) probe which is converted by lipases to fluorescent 4-methylumbelliferone, and whose signal has been recorded.
# [4] = system: Normal Human Fibroblasts (NHF); assay: Immuno-enzymatic tests on normal human fibroblasts (NHF) culture; format: cell-based; conditions: 3 days
# Method: 1.3—Immuno-Enzymatic Tests on Normal Human Fibroblasts (NHF) Culture Principle: Normal Human Fibroblasts (NHF) are cultured in 24-well plates for 24 hours in the proliferation medium until confluence. The cells are then brought into contact or not (control case) with the preferred peptide according to the invention for 3 days in a medium without serum. The culture media are collected and the concentrations of various elements of the dermis or the basement membrane (PIP (carboxy-terminal propeptide of procollagen type I), collagen I, collagen IV, fibronectin) are measured by ELISA assays. An estimate of cell viability is also carried out at the end of culture, in order to weight the data from the ELISA, using an assay with the Hoechst 33258 reagent (DNA intercalator). A study of variances and a Student t test for paired series were carried out to judge the significance of the results.
# S. epidermidis = S. epidermidis growth (selectivity test); format: cell-based; conditions: 6 ppm and 12 ppm, 48 hours
# Method: S. epidermidis was inoculated in an appropriate medium and its growth was followed over time. The peptide according to the invention (6 ppm and 12 ppm) was tested on these cells for 48 hours in comparison with the control case (n=6).
# NHKs exposed to UVB = assay: ELISA of pro-inflammatory mediators (PGE2 and IL-6) on NHK exposed to UVB; format: cell-based, human
# Method: 1.1—Immuno-Enzymatic Assays (ELISA) on Normal Human Keratinocyte (NHK) Culture Principle: NHKs in culture and at confluence are brought into contact with the peptide of the invention at different concentrations for 24 hours in a medium allowing their survival. Then the cell layers are irradiated with UVB (light stress, intended to mimic an experimental cutaneous micro-inflammation) in a physiological buffer and again brought into contact with the products to be tested for 24 hours. At the end of this incubation, the culture media are assayed by ELISA to evaluate the amounts of pro-inflammatory mediators (PGE2 and IL-6) produced by these cells in response to irradiation. The results are compared to the control. A decrease in the amount of mediators produced will be interpreted as a limitation of damages related to inflammation. An estimate of the cell number is made on the attached layer to reduce the assay results to the number of cells. A study of variances and a Student t test are carried out to judge the significance of the results.
# [5] = system: HaCaT (human keratinocyte line); assay: ELISA assay of hyaluronic acid on HaCaT culture; format: cell-based; conditions: 72 hours of contact
# Method: This same type of test was carried out on a HaCaT culture (human keratinocyte line), but without the irradiation step, with a contact time of 72 hours between the cells and the peptide of the invention and an ELISA assay of hyaluronic acid on the culture medium.
# P. acnes [6] = assay: Persistent effect on P. acnes growth after removal of the peptide; format: cell-based, Propionibacterium acnes; conditions: 48 hours of contact, then fresh medium without peptide
# Method: This study was also carried out to follow the persistent effect of the peptide according to the invention on P. acnes, and to see if the inhibition can be quickly lifted in the absence of the peptide. The peptide was brought into contact with the cells from the start, as before. After 48 hours of contact and evaluation of the quantity of cells, the cells of all the cases were centrifuged and returned to a fresh medium without solvent or peptide, all the cases having the same quantity of cells. The growth was then assessed again.
substance,measurement,setting,value
palmitoyl-lysyl-threonyl-serine-lysyl-serine (Palmitoyl-KTSKS-OH; SMILES CCCCCCCCCCCCCCCC(=O)N[C@@H](CCCCN)C(=O)N[C@H](C(=O)N[C@@H](CO)C(=O)N[C@@H](CCCCN)C(=O)N[C@@H](CO)C(=O)O)[C@@H](C)O) [Pal-KTSKS],"Thickness of the stratum corneum, Variation (%)",equivalent skins; 8 ppm of peptide in carbopol gel,+150%; p < 0.01
same,"Thickness of the stratum corneum, Variation (%)",equivalent skins; 10 ppm of peptide in carbopol gel,+143%; p < 0.05
same,Growth of P. acnes: time required to reach an OD of 1,Propionibacterium acnes; 6 ppm of peptide,54 h
same,Growth of P. acnes: time required to reach an OD of 1,Propionibacterium acnes; 9 ppm of peptide,103 h
same,Growth of P. acnes: time required to reach an OD of 1,Propionibacterium acnes; 12 ppm of peptide,135 h
same,Involucrin (% var vs. Control),[1],+177%; p < 0.01
same,Delay in P. acnes growth versus vehicle,P. acnes [2]; 6 ppm,+5 h
same,Time (in hour) to reach OD600 nm = 0.5,P. acnes [2]; 6 ppm,48.8 h
same,Delay in P. acnes growth versus vehicle,P. acnes [2]; 9 ppm,+11 h
same,Time (in hour) to reach OD600 nm = 0.5,P. acnes [2]; 9 ppm,55.0 h
same,Delay in P. acnes growth versus vehicle,P. acnes [2]; 12 ppm,+43 h
same,Time (in hour) to reach OD600 nm = 0.5,P. acnes [2]; 12 ppm,87.3 h
same,"Lipase activity of P. acnes, Variation (%)",[3]; 6 ppm of peptide,−22%; p < 0.01
same,"Lipase activity of P. acnes, Variation (%)",[3]; 9 ppm of peptide,−64%; p < 0.01
same,"Lipase activity of P. acnes, Variation (%)",[3]; 12 ppm of peptide,−88%; p < 0.01
same,Collagen I Variation %/control,[4]; 8 ppm,+75%; p < 0.01
same,Collagen IV Variation %/control,[4]; 8 ppm,+18%; p < 0.01
same,Fibronectin Variation %/control,[4]; 8 ppm,+40%; p < 0.01
same,Terminal C peptide of pro-collagen I variation %/control,[4]; 8 ppm,+61%; p < 0.01
same,Collagen I Variation %/control,[4]; 10 ppm,+184%; p < 0.01
same,Collagen IV Variation %/control,[4]; 10 ppm,+98%; p < 0.01
same,Fibronectin Variation %/control,[4]; 10 ppm,+67%; p < 0.01
same,Terminal C peptide of pro-collagen I variation %/control,[4]; 10 ppm,+94%; p < 0.01
same,Growth of S. epidermidis relative to control,S. epidermidis,"slight, temporary slowdown in growth"
same,"IL6 secretion, variation compared to the control",NHKs exposed to UVB; 3 ppm,−4% (nsd)
same,"PGE2 secretion, variation compared to the control",NHKs exposed to UVB; 3 ppm,+1% (nsd)
same,"IL6 secretion, variation compared to the control",NHKs exposed to UVB; 10 ppm,−33% (p < 0.01)
same,"PGE2 secretion, variation compared to the control",NHKs exposed to UVB; 10 ppm,−41% (p < 0.01)
same,"IL6 secretion, variation compared to the control",NHKs exposed to UVB; 15 ppm,−65% (p < 0.01)
same,"PGE2 secretion, variation compared to the control",NHKs exposed to UVB; 15 ppm,−63% (p < 0.01)
same,"Secretion of hyaluronic acid, Variation %/non treated cells",[5]; 6 ppm,+33%; p < 0.01
same,"Secretion of hyaluronic acid, Variation %/non treated cells",[5]; 8 ppm,+42%; p < 0.01
same,"Secretion of hyaluronic acid, Variation %/non treated cells",[5]; 10 ppm,+62%; p < 0.01
same,"Secretion of hyaluronic acid, Variation %/non treated cells",[5]; 15 ppm,+107%; p < 0.01
same,Persistent effect on P. acnes growth once the peptide is removed,P. acnes [6],no persistent effect
